These results are taken from patent publication US20190264193A1, “PROTEIN ENGINEERING METHODS” (Caribou Biosciences, Inc., priority 2016, published 2019).

Each structure is given as a SMILES string.

The target of test [1] is T1, DNA-PK (Homo sapiens, UniProt P78527). The test can be described thus: NU7441 five point dose response on DNA repair patterns after sgRNP nucleofection. The conditions noted are these: HEK293 T cells. It is filed as cell-based. As to the method: In order to assess whether compounds can alter the DNA repair pathways, the following experiment was conducted with methods as described in van Overbeek et al., Molecular Cell (2016) http://dx.doi.org/10.1016/j.molcel.2016.06.037. Briefly, to test the hypothesis that suppression of c-NHEJ would alter the DNA repair landscapes, favoring MMEJ repair outcomes, a chemical inhibitor of DNA-PK, NU7441, was added to HEK293 T cells one hour post nucleofection in a five point dose response. Genomic lysate was harvested 48 hours post nucleofection and processed.
As inhibitor concentration increased, the mean frequency of single base insertions and small deletions (<3 base pairs) decreased, whereas the mean frequency of a subset of large deletions (>3 base pairs) present in the DNA repair profiles increased. This experiment evidences that the suppression of c-NHEJ enhances DNA repair by MMEJ pathways after DSB formation by Cas9.

The target in test [2] is T1, DNA-PK. In words: DNA repair outcomes after Cas9 cleavage by amplicon sequencing, HEK293 plus NU7441. It is filed as cell-based. To be noted: JAK1 target site; 48 hours after nucleofection of sgRNP in HEK293 plus NU7441 (FIG. 6F). As to the method: In order to assess DNA repair outcomes in human cells, the following experiment was conducted using methods as described in van Overbeek et al., Molecular Cell (2016) http://dx.doi.org/10.1016/j.molcel.2016.06.037. Briefly, the repair outcomes following Cas9 cleavage of double-stranded DNA, which result in blunt end products, were profiled using computational tools developed to categorize indels from a cell-based assay. To this end, HEK293, K562 and CCRF-CEM cells were transfected with pre-assembled complexes of Cas9 protein and sgRNA (single-guide RNA ribonucleoprotein complexes (sgRNPs). The Cas9/sgRNA complexes used were prepared as described in van Overbeek et al., Molecular Cell (2016) http://dx.doi.org/10.1016/j.molcel.2016.06.037. DNA repair patterns following Cas9 cleavage were analyzed by amplicon sequencing at time points as shown in FIGS. 6A-6F.
Sequencing reads were assigned to a specific indel class based on the indel type (insertion or deletion), start site, and length (or to the wild-type class), and then the frequency of each class was calculated as a fraction of aligned reads or as a fraction of mutant reads. […]

[3] abbreviates: as inhibitor concentration increased.

T1 sequence (P78527 whole entry): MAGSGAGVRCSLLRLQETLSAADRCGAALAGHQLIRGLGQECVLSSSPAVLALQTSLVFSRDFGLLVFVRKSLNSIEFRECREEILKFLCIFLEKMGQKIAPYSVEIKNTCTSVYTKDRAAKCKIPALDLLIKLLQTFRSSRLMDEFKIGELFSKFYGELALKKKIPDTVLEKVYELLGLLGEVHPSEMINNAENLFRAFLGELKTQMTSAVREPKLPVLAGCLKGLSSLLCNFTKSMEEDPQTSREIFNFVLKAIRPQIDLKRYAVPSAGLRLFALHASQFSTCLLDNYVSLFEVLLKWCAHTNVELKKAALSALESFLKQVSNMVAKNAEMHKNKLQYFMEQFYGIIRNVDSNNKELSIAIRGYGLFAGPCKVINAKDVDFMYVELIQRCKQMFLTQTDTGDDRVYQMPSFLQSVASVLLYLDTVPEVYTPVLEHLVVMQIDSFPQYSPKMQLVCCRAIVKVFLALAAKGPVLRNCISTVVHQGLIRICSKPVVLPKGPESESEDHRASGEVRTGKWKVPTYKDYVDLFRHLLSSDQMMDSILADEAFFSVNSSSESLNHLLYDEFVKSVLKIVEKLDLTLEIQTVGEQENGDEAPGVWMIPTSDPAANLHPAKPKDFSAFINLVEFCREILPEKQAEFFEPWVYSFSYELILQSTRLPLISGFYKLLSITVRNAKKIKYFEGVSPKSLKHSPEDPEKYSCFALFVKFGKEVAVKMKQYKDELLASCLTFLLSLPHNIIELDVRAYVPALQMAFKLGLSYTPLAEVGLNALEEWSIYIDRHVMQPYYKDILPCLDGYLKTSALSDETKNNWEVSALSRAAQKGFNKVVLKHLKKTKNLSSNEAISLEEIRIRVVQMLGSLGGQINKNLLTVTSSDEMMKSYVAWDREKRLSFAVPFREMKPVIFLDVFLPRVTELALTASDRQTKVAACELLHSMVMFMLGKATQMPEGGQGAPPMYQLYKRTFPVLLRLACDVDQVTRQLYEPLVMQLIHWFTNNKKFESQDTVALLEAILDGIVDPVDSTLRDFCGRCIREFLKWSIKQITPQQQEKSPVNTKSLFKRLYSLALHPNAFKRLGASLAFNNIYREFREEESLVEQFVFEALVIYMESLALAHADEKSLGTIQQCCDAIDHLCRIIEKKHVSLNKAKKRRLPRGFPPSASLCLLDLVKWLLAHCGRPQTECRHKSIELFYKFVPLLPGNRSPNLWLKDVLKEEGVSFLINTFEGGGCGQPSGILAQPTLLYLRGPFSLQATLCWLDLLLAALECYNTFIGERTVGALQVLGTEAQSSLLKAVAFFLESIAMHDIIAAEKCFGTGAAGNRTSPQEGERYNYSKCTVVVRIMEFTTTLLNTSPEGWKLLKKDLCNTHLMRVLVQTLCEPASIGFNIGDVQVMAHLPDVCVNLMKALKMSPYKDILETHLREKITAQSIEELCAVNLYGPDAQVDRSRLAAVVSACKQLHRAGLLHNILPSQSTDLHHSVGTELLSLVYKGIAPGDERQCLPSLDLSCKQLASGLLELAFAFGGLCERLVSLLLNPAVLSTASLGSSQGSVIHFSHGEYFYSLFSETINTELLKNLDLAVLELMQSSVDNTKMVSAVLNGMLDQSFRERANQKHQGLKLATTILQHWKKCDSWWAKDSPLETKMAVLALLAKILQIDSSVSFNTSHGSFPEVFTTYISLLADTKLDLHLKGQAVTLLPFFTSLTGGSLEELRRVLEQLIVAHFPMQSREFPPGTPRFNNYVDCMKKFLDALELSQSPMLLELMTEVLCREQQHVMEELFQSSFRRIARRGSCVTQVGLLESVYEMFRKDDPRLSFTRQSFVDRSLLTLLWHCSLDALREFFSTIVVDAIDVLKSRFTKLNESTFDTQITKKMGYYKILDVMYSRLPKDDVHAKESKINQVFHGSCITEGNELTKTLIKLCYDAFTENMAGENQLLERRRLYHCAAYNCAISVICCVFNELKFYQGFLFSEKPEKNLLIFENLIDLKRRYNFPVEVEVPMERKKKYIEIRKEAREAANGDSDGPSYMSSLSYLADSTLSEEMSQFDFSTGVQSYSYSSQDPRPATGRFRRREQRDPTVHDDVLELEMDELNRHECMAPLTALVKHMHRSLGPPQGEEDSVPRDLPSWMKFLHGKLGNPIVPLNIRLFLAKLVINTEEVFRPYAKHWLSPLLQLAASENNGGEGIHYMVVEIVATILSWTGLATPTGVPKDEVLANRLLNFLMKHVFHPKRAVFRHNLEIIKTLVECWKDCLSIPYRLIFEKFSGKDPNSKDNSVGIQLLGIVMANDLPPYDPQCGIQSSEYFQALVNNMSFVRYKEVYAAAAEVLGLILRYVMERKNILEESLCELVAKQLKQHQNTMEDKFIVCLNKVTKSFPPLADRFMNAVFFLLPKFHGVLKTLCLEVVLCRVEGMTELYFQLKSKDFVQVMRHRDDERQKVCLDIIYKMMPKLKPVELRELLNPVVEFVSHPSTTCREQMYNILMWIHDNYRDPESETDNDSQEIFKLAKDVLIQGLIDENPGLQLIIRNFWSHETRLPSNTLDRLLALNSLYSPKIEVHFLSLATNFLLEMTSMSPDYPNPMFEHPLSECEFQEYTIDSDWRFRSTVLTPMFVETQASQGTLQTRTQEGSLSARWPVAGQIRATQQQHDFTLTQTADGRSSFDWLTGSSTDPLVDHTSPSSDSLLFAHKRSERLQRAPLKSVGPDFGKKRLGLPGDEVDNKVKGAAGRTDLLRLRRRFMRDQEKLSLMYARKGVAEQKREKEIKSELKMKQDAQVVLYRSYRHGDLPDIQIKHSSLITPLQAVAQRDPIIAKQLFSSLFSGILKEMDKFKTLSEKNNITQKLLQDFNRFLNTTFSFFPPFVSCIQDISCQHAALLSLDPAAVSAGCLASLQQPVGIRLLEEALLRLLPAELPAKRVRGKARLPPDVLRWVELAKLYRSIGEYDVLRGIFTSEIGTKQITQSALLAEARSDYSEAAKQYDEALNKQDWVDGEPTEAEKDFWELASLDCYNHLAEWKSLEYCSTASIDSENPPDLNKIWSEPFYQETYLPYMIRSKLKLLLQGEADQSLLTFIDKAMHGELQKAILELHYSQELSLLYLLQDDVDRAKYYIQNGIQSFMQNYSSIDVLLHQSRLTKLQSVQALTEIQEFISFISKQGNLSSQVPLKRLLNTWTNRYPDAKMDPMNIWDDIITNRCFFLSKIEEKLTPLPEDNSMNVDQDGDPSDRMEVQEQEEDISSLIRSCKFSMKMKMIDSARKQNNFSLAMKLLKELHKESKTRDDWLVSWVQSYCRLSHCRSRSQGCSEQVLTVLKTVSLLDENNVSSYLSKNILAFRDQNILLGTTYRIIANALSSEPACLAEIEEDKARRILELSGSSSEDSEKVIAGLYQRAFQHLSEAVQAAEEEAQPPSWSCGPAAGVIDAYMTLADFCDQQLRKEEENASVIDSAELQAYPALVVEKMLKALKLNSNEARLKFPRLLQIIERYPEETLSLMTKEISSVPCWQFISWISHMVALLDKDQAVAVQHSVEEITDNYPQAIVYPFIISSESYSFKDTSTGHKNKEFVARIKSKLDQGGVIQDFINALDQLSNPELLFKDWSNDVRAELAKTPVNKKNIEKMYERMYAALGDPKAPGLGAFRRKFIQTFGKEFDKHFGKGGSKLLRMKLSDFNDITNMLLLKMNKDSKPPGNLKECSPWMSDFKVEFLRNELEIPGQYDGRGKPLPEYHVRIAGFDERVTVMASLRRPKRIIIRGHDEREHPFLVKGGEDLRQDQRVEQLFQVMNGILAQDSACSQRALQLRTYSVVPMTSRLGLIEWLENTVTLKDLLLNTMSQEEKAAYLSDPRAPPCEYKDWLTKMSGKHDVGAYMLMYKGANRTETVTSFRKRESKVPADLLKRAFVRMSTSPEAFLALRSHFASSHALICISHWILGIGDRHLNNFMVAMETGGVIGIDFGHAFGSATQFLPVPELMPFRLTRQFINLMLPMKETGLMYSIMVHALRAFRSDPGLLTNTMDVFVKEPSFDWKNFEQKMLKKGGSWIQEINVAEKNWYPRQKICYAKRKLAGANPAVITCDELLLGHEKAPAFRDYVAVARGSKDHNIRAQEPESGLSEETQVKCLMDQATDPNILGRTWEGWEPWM

On to `O=c1cc(N2CCOCC2)oc2c(-c3cccc4c3sc3ccccc34)cccc12` [NU7441], for which, at DNA-PK [1] (setting [3]), the “mean frequency of a subset of large deletions (>3 base pairs)” value is “increased”; the “mean frequency of single base insertions and small deletions (<3 base pairs)” value is given as “decreased”. Further, on DNA-PK [1] (lowest concentration of inhibitor 1.56 μM, 12 different target sites, added one hour post nucleofection, harvested 48 hours), the “change of the DNA repair patterns compared with untreated samples” value was “a change of the DNA repair patterns at 12 different target sites compared with untreated samples was apparent”. In addition, on DNA-PK [2], the “DNA repair outcomes (classes and frequency) compared with FIG. 6A (HEK293 without inhibitor)” value is “different DNA repair outcomes”.
